From patent US10052381B2, “Classifiers of NF-κB pathway activation, devices, and methods of use thereof” (Emory University, priority 2012, dated 2018)

Tests used:
Format in all cases: cell-based
[1] = test system: p105 gene classifier (canonical NF-κB pathway); assay: nCounter gene expression of the p105 classifier in DLBCL cell lines after drug treatment
Experimental: (§1) FIG. 5A illustrates that rituximab increases the apoptotic effect of doxorubicin when it is associated with suppression of p105 and induction of p100 classifier gene expression. Boxplot of p100 and p105 gene list illustrating the changes in gene expression in cells treated with doxorubicin ([…]) or rituximab ([…]). Cells were treated for 24 hours and the percent of live cells was measured using an ImageXpress 5000A Automated Acquisition and Analysis System (Molecular Devices), quantitating for Yo-pro-1 or PI-negative cells.
(§2) Given the capacity of the p105 classifier to predict a better response to RCHOP, the extent to which both classifiers were targeted by rituximab was investigated. In this investigation, the pathway dysregulation in a series of DLBCL cell lines and their changes in gene expression produced by DNA damaging agent (doxorubicin) and rituximab was measured. Based on their known baseline pattern of NF-κB activation, cell lines with enhanced (OCI-LY3, OCI-LY10) and suppressed (OCI-LY19 and OCI-LY2) NF-κB activation were selected for further testing (FIG. 5A).
(§3) nCounter Analysis System technology was developed by NanoString Technologies. In brief, nCounter™ assay was performed using 100 ng of total RNA or 2 μL of tissue lysate per replicate. The nCounter CodeSet for these studies contained probe pairs for 47 test and 3 control genes. All 47 genes and controls (n=3) were assayed simultaneously in multiplexed reactions. […] Subsequently, supervised complete linkage agglomerative hierarchical clustering analysis was performed.

[2] = test system: p100 gene classifier (noncanonical NF-κB pathway); assay: nCounter gene expression of the p100 classifier in DLBCL cell lines after drug treatment
Experimental: as §1, §2, §3

[3] = test system: DLBCL cell lines OCI-LY3, OCI-LY10, OCI-LY19 and OCI-LY2; assay: Apoptosis studies (Yo-pro-1 / PI negative live cells, ImageXpress); details: rituximab alone, titrating doses, 24 hours; all four cell lines
Experimental: To assess the consequence of rituximab's functional effects, the degree of apoptosis produced after treating all four cell lines with titrating doses of doxorubicin and rituximab was measured.
For apoptosis studies, 10^4 cells were treated with titrating doses of doxorubicin (titrating doses: […], Sigma) or rituximab (titrating doses: 1.5, 2.5, 5, 10 and 20 mg/mL, Biogen Idec Inc). Twenty four hours later cells were stained with Yo-pro-1 iodide and propidium Iodide (PI, both from Invitrogen). Live cells were measured using an ImageXpress 5000A Automated Acquisition and Analysis System (Molecular Devices), quantitating for Yo-pro-1 iodide and PI negative cells.

[4] = doxorubicin alone, OCI-LY3, OCI-LY10 cells
[5] = rituximab with doxorubicin, NF-κB activated cell lines (OCI-LY3, OCI-LY10)

Row | Compound | gene expression of p105 target genes [1, 4] | gene expression of p100 target genes [2, 4] | change in expression of p105 classifier ([1]; OCI-LY2 and OCI-LY19 cells) | effect on doxorubicin's induction of p105 gene classifier [1, 5] | change in expression of p100 classifier ([2]; OCI-LY2 and OCI-LY19 cells) | effect on doxorubicin's induction of p100 gene classifier [2, 5] | degree of apoptosis [3]
1 | COc1cccc2c1C(=O)c1c(O)c3c(c(O)c1C2=O)C[C@@](O)(C(=O)CO)C[C@@H]3O[C@H]1C[C@H](N)[C@H](O)[C@H](C)O1 [doxorubicin] | moderately induced | moderately induced | – | – | – | – | –
2 | rituximab | – | – | minimally changed | suppressed doxorubicin's induction | minimally changed | enhanced the induction | did not induce significant apoptosis beyond background levels
